Test results published in the AptaBench aptamer set (doi:10.1093/nar/gkaf219).

Assays:
Settings in all cases: 10 mM Tris-HCl, pH 7.4
[1] = test system: DNA aptamer or structured DNA CTTACGACGGTGGTGTGGTACTGGGCTTGGGGGGTGTTGTCGTAAG
[2] = test system: DNA aptamer or structured DNA CTTACGACGTGTGCTGTTGGTTCTAGGGTTAGGATGGCGTCGTAAG
[3] = test system: DNA aptamer or structured DNA CTTACGACAAGGGATGTCTGTTAGTGTGTCGGTGCATTGTCGTAAG
[4] = test system: DNA aptamer or structured DNA TTCAAATCTCGCGCAGGTAGGGGTGTAGGTGTGGGGGTAAGTCTAGATTTGAA
[5] = test system: DNA aptamer or structured DNA GGGACGACGGAGGTGTAGGGTTTAGGTAGTGGGTTGAAGTCGTCCC
[6] = test system: DNA aptamer or structured DNA CTTACGACGGGTGCTGTTGGTTCTAGGGGTAGGATGGCGTCGTAAG
[7] = test system: DNA aptamer or structured DNA CTTACGACCTGCTCTGAGGGTCAACGGTGGTGTAGTCGGTCGTAAG
[8] = test system: DNA aptamer or structured DNA GGGACGACGGAAGGGTGTGCTGCGGTTTGGCTTCTGGCGTCGTCCC
[9] = test system: DNA aptamer or structured DNA GGGACGACGGCAATTGCCGGTGCAGGATCTGAATTATCGTCGTCCC
[10] = test system: DNA aptamer or structured DNA CTTACGACTAGGTGTGGGTCGGCTCAATTCGGAGGGTAGTCGTAAG
[11] = test system: DNA aptamer or structured DNA TTCAAATCTATGGTGCAGTGCGCAGGGACGGAGGTAAAACATGAGTTTTAGTCTAGATTTGAA
[12] = test system: DNA aptamer or structured DNA CTTACGACAAGGGATGTGAGTTAGTGTGTCGGATCTATGTCGTAAG
[13] = test system: DNA aptamer or structured DNA GGGACGACGCTAGGGGATCTTTTGGGGTTTGTATGGGCGTCGTCCC
[14] = test system: DNA aptamer or structured DNA CTTACGACGTTGGGCTTATTAGGGGCTGGAGTGGGTGAGTCGTAAG
[15] = test system: DNA aptamer or structured DNA CTTACGACTAGTTCGGATAAGGGGTAGGTGTGGTTGTGGTCGTAAG
[16] = test system: DNA aptamer or structured DNA GGGACGACGGCACGAGGTTATTCGTTGGTTGCACTGCGCTGGGAGGTAGTCGTCCC
[17] = test system: DNA aptamer or structured DNA TTCAAATCTGAGCAGCCTAGTTACTGACGGGTTTATAGTACTCGTATTGAGTCTAGATTTGAA
[18] = test system: DNA aptamer or structured DNA CTTACGACAAAGGCTCGGGCTCCCATGATGGATTCGTTGTCGTAAG
[19] = test system: DNA aptamer or structured DNA CTTACGACTAGGTGTGGGTCGGCTCCGGATGGAGGGTAGTCGTAAG
[20] = test system: DNA aptamer or structured DNA CTTACGACAATCTTTTGGGTGTTCTGGGTGAGGTGTTTGTCGTAAG
[21] = test system: DNA aptamer or structured DNA CTTACGACGTAGCTTCGGGTGTTCTGGGTGAGCTCTGCGTCGTAAG
[22] = test system: DNA aptamer or structured DNA CTTACGACGGGTGCCGTTGGTTCTAGGGGTAGGATGGCGTCGTAAG
[23] = test system: DNA aptamer or structured DNA GGGACGACAGAGGTTAGGTGTAGGTTTTTGGGTCCTGTCGTCCC
[24] = test system: DNA aptamer or structured DNA CTTACGACACACGGTGTGGATGAGGTGGGCTAATAGGGGTCGTAAG
[25] = test system: DNA aptamer or structured DNA CTTACGACTAGTTCCGGGTAGGGGTAGGCGTGGTTGTGGTCGTAAG
[26] = test system: DNA aptamer or structured DNA CTTACGACCGGGATCCTTTGGGACAACCTGGTGGGCATGTCGTAAG
[27] = test system: DNA aptamer or structured DNA GGGACGACGCAAATGGAAGCATTGGTTGTGTTCACACTGCTGGGTCGTCCC
[28] = test system: DNA aptamer or structured DNA CTTACGACCACCATGGGAATCGGGTGGCTTGGAGGTGCGTCGTAAG
[29] = test system: DNA aptamer or structured DNA GGGACGACAGTGGCGTTTATGGGTCGGGTGTGGGAAATGTCGTCCC
[30] = test system: DNA aptamer or structured DNA CTTACGACGAGCGCGTGTGGCCGGCGTGAGGGAGGTGAGTCGTAAG
[31] = test system: DNA aptamer or structured DNA CTTACGACACAGGGTGTGTTGTGCTCAGTGGTGTATGTGTCGTAAG
[32] = test system: DNA aptamer or structured DNA CTTACGACACTGGCAGGAGGGTCGGGTGTGGGAACGTGGTCGTAAG
[33] = test system: DNA aptamer or structured DNA GGGACGACGGGAAATGGAAGCATTGGTTGAGTTACTCTGCTCCTGTCGTCCC
[34] = test system: DNA aptamer or structured DNA CTTACGACACCGGGATCCAGATGGGTAGTTTGATGTGTGTCGTAAG
For binding call in this document: call rule not given here.

NCCc1c[nH]c2ccc(O)cc12
binding call [1]: no binding | binding call [2]: binds | binding call [3]: no binding | binding call [4]: no binding | binding call [5]: no binding | binding call [6]: binds | binding call [7]: no binding | binding call [8]: no binding | binding call [9]: binds | binding call [10]: no binding | binding call [11]: binds | binding call [12]: no binding | binding call [13]: binds | binding call [14]: no binding | binding call [15]: binds | binding call [16]: no binding | binding call [17]: no binding | binding call [18]: no binding | binding call [19]: no binding | binding call [20]: no binding | binding call [21]: no binding | binding call [22]: binds | binding call [23]: no binding | binding call [24]: no binding | binding call [25]: no binding

COC(=O)[C@@H]1C2CCC(C[C@@H]1OC(=O)c1ccccc1)N2C (stereo partly drawn)
Kd [1]: 0.335 µM | binding call [26]: no binding | binding call [27]: binds | Kd [2]: 0.098 µM | binding call [28]: no binding | Kd [3]: 0.33 µM | binding call [29]: no binding | binding call [30]: no binding | binding call [4]: no binding | binding call [5]: binds | binding call [31]: no binding | Kd [6]: 0.107 µM | binding call [32]: no binding | Kd [7]: 0.189 µM | binding call [33]: no binding | binding call [8]: no binding | binding call [9]: no binding | Kd [10]: 0.461 µM | Kd [12]: 0.152 µM | binding call [13]: binds | Kd [14]: 0.617 µM | Kd [15]: 0.192 µM | binding call [16]: no binding | binding call [17]: no binding | Kd [18]: 0.285 µM | Kd [19]: 0.51 µM | Kd [20]: 0.378 µM | Kd [21]: 0.833 µM | Kd [22]: 1.35 µM | binding call [23]: no binding | binding call [34]: no binding | Kd [24]: 0.069 µM | Kd [25]: 0.07 µM
